{"source": "paper PMC12888920", "about": "“MMP-9 regulates disulphide isomerase activity of TGM2 to enhance fusion glycoprotein-mediated syncytium formation of respiratory syncytial virus” (Protein & Cell, 2025)", "key": {"RSV F/G/SH pseudovirus": {"tested_on": "RSV F/G/SH pseudovirus", "experiment": "RSV F/G/SH pseudovirus entry assay (luciferase)", "assay_type": "cell-based, Respiratory syncytial virus", "conditions": "5 µmol/L, HEp-2, 48 hpi", "method": "Figure 2. MMP-9 regulates late-stage RSV infection. (A) Time-of-addition assay design (left). HEp-2 cells were treated with metalloproteinase inhibitors under three regimens: “Full-time” (2 h pretreatment + continuous exposure), “Entry” (viral attachment phase only), or “Post-entry” (≥ 2 hpi). Cells infected with RSV A2 (MOI = 1) were analyzed for cytopathic effect inhibition at 72 hpi versus DMSO controls. mean ± SD, n = 3. (B) No inhibition of RSV F/G/SH pseudovirus entry by doxycycline hyclate or JNJ0966 (5 µmol/L). mean ± SD, n = 3. (C) Temporal sensitivity analysis (left). Viral RNA levels (22 hpi) in HEp-2 cells treated with 5 µmol/L inhibitors at defined intervals: pre-infection (−2–0 h), entry (0–2 h), or post-entry (2–16 h) phases (right). mean ± SD, n = 3. (D) Multicycle replication kinetics. Intracellular RSV RNA (fusion gene copies) in HEp-2 cells treated with 5 µmol/L inhibitors at indicated time points (4–144 hpi). mean ± SD, n = 3. (E) Viral assembly/release inhibition assay. Supernatant viral titers at 22 hpi after post-entry treatment (10/16 hpi) (right). mean ± SD, n = 3. (F) Dose-dependent suppression of RSV progeny (MOI = 0.2/1) by inhibitors (72 hpi), quantified by FFA. mean ± SD, n = 3. […] The results are representatively shown with three random experiments. The error bars indicate the mean ± SD of three technical replicates (n = 3). […]"}, "RSV A2": {"tested_on": "RSV A2", "experiment": "Suppression of RSV progeny viral titer (FFA, 72 hpi) in HEp-2 cells", "assay_type": "cell-based, Respiratory syncytial virus", "conditions": "0.2 and 1 MOI", "method": "Figure 2. MMP-9 regulates late-stage RSV infection. (A) Time-of-addition assay design (left). HEp-2 cells were treated with metalloproteinase inhibitors under three regimens: “Full-time” (2 h pretreatment + continuous exposure), “Entry” (viral attachment phase only), or “Post-entry” (≥ 2 hpi). Cells infected with RSV A2 (MOI = 1) were analyzed for cytopathic effect inhibition at 72 hpi versus DMSO controls. mean ± SD, n = 3. (B) No inhibition of RSV F/G/SH pseudovirus entry by doxycycline hyclate or JNJ0966 (5 µmol/L). mean ± SD, n = 3. (C) Temporal sensitivity analysis (left). Viral RNA levels (22 hpi) in HEp-2 cells treated with 5 µmol/L inhibitors at defined intervals: pre-infection (−2–0 h), entry (0–2 h), or post-entry (2–16 h) phases (right). mean ± SD, n = 3. (D) Multicycle replication kinetics. […] (F) Dose-dependent suppression of RSV progeny (MOI = 0.2/1) by inhibitors (72 hpi), quantified by FFA. mean ± SD, n = 3. […]\nTo evaluate the effects of the compounds on RSV assembly and release, we treated HEp-2 cells with the inhibitors at 10 hpi (the onset of virion assembly) or 16 hpi (the onset of virion release) following RSV infection ([Malhi et al., 2021]). Supernatants were collected at 22 hpi for viral titer quantification. […] Furthermore, at 72 hpi, viral titers were quantified following infection with varying doses of RSV (0.2 and 1 MOI)."}}, "data": [{"compound": "COc1ccccc1Nc1nc(-c2sc(NC(C)=O)nc2C)cs1", "note": "[JNJ0966]", "values": [{"measurement": "inhibition of RSV F/G/SH pseudovirus entry", "setting": "RSV F/G/SH pseudovirus", "value": "No inhibition"}, {"measurement": "inhibition of RSV replication (viral titers)", "setting": "RSV A2", "value": "dose-dependent inhibition"}]}, {"compound": "Doxycycline hyclate", "values": [{"measurement": "inhibition of RSV F/G/SH pseudovirus entry", "setting": "RSV F/G/SH pseudovirus", "value": "No inhibition"}, {"measurement": "inhibition of RSV replication (viral titers)", "setting": "RSV A2", "value": "dose-dependent inhibition"}]}]}
